The term IC50 denotes the concentration needed to halve the response being measured. A higher IC50 goes with weaker potency. Broadly, the half-life is how long it takes for the measured level to halve. A lower half-life goes with fast loss.

The results in this text go back to US6495606B1, “Nitric oxide synthase inhibitors” (SmithKline Beecham Corporation, priority 1998, dated 2002).

The target of one data set is T1, human iNOS (Homo sapiens, UniProt P35228).
T1 construct: made in house
Nature of the data set: Inhibition of isolated human iNOS. Format: biochemical. To be noted: purified human iNOS, haemoglobin absorption assay. The text has this:
1. Inhibition of Isolated Human iNOS
The inhibition of purified human iNOS may be determined using a preparation of human iNOS as described in the chapter “Expression if Human Nitric Oxide Synthase Isozymes” by Charles et al in Methods in Enzymology, 1996 Volume 268, 449-460. Activity may be monitored using quantitative absorption changes of haemoglobin as described by R. G. Knowles and J. Dawson in “A Microtitreplate Assay of Human NOS Isoforms” in Methods in Molecular Biology, 1998, Volume 100, 237-242, Nitric Oxide Protocols, Ed M. A. Titheradge, Humana Press, Totowa N.J.

The nature of data set [1]: Oral bioavailability and pharmacokinetics in rats. It counts as in vivo, rat. How it is done:
4. Method for Determining the Oral Bioavailability of iNOS Inhibitor Compounds
Rats (3 animals per time point) were dosed intravenously (10 mg/kg) and orally (50 mg/kg) with test compound in an aqueous solution. Blood samples were taken at time intervals after administration and plasma prepared by centrifugation. Samples were stored at −20° C. until analysis.
Plasma (50 μl) was de-proteinated and compound derivatised with a quaternary ammonium reagent. Samples were then injected onto an HPLC system and compound concentration determined using mass spectrometric detection.
The plasma concentrations obtained by the above method were entered into a pharmacokinetic software package (PKCAL v 1.2s) and the data were fitted using a non-compartmental method. The oral bioavailability of the compounds was determined by comparing the Area Under the Curve (AUC) values calculated by the software for the oral profile with the AUC for the intravenous profile. The half-lives were obtained by fitting the terminal phase time points of the intravenous profile.

The next data set concerns the target T2, eNOS (Rattus norvegicus, UniProt Q62600).
T2 construct: from tissue; host or cells: rat thoracic aorta rings with intact endothelium
The data set is described as follows: Inhibition of eNOS in situ in rat aortic rings (basal tone, intact endothelium, ring tension). To be noted: rat aortic rings with intact endothelium, threshold phenylephrine. It counts as cell-based. The protocol: (§1) 2. Inhibition of eNOS and INOS in Rat Aortic Rings
(§2) The inhibition of eNOS and iNOS in situ in rat aortic rings was assessed by measuring the increases in ring tension caused by NO synthase inhibition. For studies of basal tone (reflecting eNOS), rings of thoracic aorta with intact endothelium were prepared as described previously (Rees et at. (1989) Br. J. Pharmol. 96, 418-424) and cumulative concentration curves obtained for the inhibitors in the presence of a threshold concentration of phenylephrine (ED10≈10 nM). For studies of induced smooth muscle tone (reflecting iNOS), endothelium-denuded rings were exposed to LPS (0.1 μg/ml from S. typhosa) in the presence of phenylephrine at approximately ED90 for 6 h as described previously (Rees et al. (1990) Biochem. Biophys. Res. Commun. 173, 541-547). During this time a progressive loss of tone occurred because of iNOS induction. Cumulative concentration curves were then obtained for the inhibitors.

Another data set addresses T3, nNOS (Rattus norvegicus, UniProt P29476).
T3 construct: rat cerebral cortex slices; from tissue; host or cells: rat cerebral cortex slices (McIlwain-chopped)
The data set is described as follows: Inhibition of nNOS in rat cortical slices (14C-arginine to 14C-citrulline). Format: cell-based. The protocol: 3. Inhibition of nNOS in Rat Cortical Slices
The effects of compounds on nNOS in rat brain slices was determined as described in Furfine et al (1994) J. Biol. Chem. 269, 26677-26683 and Lizasoain et al (1995) J. Neurochem. 64, 636-642. KCl (54 mM)—stimulated NO synthesis was measured by the conversion of 14C-arginine to 14C-citrulline over a 2 h period at 37° C. in Mcllwain—chopped (0.2 mm ×0.2 mm) rat cerebral cortex slices, following a 1 h preincubation period in the absence of compound or high KCl.

The target in a further data set is T4, iNOS (Rattus norvegicus, UniProt Q06518).
T4 construct: endothelium-denuded rings were exposed to LPS; from tissue; host or cells: rat thoracic aorta rings, endothelium-denuded, LPS-treated
Nature of the data set: Inhibition of iNOS in situ in rat aortic rings (LPS-induced, endothelium-denuded, ring tension). Format: cell-based. How it is done: as §1, §2

T1 sequence (P35228 whole entry): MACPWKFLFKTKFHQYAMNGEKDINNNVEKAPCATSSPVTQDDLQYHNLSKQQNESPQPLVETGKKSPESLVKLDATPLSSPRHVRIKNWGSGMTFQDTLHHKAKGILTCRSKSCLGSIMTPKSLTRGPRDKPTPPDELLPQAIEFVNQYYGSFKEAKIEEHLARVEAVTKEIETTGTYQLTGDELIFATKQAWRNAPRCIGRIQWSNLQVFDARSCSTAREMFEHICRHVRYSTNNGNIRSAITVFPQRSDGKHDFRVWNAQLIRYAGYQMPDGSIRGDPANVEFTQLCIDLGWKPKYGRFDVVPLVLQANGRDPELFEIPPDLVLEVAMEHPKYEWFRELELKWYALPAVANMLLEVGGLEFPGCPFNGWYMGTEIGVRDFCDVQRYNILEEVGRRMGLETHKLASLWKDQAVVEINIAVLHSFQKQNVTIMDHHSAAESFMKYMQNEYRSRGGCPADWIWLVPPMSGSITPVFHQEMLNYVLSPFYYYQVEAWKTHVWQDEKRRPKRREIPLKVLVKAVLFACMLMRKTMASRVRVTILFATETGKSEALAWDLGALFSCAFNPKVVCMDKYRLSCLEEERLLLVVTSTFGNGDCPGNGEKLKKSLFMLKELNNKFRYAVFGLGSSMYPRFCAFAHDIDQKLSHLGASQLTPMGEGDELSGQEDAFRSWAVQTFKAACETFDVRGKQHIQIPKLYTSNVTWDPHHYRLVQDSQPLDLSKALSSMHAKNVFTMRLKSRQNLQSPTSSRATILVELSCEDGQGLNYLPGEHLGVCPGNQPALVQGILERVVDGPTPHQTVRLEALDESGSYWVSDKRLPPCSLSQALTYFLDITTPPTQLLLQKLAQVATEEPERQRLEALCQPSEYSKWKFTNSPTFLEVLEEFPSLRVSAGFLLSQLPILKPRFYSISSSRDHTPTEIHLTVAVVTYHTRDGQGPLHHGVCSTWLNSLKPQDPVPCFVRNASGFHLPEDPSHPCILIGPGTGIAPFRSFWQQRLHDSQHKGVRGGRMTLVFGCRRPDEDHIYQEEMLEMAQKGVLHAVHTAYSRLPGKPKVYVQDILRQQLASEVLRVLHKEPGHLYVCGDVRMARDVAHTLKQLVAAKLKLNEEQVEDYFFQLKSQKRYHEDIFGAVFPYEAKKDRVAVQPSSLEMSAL
T3 sequence (P29476 whole entry): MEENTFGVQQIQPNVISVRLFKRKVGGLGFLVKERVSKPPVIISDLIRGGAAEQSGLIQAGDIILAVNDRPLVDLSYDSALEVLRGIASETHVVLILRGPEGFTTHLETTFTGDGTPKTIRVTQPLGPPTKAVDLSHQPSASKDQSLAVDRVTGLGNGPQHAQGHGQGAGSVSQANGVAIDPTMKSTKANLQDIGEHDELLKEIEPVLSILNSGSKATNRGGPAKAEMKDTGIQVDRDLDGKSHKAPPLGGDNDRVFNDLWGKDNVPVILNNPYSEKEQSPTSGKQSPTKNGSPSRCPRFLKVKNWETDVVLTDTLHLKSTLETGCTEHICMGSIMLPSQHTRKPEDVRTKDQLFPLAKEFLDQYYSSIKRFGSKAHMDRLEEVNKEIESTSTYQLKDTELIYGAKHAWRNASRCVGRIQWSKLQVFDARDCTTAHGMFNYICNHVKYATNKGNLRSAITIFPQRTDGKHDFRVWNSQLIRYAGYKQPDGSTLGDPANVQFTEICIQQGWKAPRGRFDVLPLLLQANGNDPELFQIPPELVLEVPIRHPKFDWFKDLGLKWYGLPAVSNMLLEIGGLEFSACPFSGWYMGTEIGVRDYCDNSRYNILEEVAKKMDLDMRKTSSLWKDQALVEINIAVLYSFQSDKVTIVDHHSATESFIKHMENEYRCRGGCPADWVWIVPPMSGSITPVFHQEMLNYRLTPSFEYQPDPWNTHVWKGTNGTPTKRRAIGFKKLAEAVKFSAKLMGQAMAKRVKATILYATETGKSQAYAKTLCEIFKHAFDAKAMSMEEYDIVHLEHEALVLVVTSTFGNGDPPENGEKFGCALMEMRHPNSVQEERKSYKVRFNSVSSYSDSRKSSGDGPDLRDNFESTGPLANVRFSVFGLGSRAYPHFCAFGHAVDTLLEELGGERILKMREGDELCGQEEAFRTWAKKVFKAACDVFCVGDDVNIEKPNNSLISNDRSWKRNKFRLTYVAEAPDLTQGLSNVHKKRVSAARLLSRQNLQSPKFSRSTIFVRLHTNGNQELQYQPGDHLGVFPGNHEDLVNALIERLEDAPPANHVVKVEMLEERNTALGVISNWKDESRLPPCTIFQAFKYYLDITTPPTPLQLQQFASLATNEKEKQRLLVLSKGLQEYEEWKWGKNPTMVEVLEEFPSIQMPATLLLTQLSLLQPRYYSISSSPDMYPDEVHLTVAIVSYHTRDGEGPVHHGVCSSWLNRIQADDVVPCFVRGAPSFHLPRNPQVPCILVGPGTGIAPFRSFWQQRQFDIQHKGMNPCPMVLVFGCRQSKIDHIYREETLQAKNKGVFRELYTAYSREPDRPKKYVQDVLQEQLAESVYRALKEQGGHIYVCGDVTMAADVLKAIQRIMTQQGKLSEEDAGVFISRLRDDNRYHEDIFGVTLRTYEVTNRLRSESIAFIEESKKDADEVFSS
T4 sequence (Q06518 whole entry): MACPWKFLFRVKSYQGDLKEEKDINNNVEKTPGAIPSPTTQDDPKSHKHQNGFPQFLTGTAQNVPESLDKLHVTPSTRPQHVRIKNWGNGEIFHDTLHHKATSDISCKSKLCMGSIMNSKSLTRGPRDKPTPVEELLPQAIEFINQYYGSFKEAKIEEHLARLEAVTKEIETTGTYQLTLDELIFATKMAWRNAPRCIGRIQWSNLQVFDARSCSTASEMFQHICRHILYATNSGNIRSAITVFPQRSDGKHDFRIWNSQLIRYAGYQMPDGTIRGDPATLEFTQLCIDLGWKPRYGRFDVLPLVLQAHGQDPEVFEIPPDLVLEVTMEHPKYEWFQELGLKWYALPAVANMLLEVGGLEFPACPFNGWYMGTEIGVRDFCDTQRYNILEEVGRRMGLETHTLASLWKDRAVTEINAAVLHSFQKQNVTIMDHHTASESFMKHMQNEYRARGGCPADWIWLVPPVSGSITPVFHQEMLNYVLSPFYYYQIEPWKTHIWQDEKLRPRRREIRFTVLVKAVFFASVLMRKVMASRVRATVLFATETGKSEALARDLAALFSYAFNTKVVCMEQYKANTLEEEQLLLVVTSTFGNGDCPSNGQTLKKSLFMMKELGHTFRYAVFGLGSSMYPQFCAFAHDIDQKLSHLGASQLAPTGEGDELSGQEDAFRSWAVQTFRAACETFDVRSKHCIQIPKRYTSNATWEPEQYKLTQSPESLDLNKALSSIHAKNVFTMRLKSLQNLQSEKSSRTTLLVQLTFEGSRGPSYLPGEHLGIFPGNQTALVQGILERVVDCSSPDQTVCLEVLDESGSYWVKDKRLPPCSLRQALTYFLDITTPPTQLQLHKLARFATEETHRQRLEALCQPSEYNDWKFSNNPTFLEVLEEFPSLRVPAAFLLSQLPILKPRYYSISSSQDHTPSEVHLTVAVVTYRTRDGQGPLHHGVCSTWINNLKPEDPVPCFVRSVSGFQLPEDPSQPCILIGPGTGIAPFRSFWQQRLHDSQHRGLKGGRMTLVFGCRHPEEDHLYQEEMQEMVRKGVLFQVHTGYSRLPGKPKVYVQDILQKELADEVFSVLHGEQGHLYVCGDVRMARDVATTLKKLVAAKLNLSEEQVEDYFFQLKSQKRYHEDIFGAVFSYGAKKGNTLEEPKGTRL
T2 sequence (Q62600 2-1202): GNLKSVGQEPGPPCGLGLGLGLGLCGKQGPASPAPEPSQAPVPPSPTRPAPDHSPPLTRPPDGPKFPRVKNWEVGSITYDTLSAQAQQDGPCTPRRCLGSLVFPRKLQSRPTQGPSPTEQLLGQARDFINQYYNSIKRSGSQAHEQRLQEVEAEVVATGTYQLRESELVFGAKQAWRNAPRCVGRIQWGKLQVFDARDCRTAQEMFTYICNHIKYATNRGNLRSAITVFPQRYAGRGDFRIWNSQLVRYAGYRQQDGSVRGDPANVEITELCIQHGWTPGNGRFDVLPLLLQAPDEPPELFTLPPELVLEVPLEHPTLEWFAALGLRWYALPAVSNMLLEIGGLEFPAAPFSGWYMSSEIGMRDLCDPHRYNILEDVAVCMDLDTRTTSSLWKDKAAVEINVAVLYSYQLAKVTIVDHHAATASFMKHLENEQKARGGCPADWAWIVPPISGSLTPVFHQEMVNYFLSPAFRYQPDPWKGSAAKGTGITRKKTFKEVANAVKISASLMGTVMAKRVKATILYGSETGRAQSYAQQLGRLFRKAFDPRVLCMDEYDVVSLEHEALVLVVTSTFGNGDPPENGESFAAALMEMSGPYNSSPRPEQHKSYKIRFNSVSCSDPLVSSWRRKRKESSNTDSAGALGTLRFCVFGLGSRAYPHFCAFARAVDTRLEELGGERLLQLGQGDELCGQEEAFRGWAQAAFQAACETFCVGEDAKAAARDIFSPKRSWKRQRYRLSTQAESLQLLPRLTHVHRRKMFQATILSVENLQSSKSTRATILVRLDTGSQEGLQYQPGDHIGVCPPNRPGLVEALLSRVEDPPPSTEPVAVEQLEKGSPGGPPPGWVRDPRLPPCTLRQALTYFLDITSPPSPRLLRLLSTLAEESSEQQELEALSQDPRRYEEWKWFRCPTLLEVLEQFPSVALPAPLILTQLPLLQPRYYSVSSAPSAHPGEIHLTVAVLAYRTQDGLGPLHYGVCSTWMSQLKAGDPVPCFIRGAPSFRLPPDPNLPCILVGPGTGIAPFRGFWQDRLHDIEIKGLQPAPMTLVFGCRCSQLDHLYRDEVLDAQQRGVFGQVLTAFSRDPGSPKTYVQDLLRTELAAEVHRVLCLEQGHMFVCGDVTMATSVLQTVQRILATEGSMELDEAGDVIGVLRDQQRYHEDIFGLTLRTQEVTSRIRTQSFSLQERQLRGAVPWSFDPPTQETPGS

On human iNOS, “S-[(R)-2-(1-Iminoethylamino)propyl]-D-cysteine Dihydrochloride [Example 4]” showed an IC50 of 48 µM.

In the case of “S-[(R)-2-(1-Iminoethylamino)propyl]-L-cysteine Dihydrochloride [Example 1]”, the 50% inhibitory concentration (IC50) on human iNOS is 2 µM; on eNOS, over 20 µM; against nNOS (rat cerebral cortex slices, KCl (54 mM)-stimulated NO synthesis, 2 h, 37° C.), over 80 µM; on iNOS (endothelium-denuded, LPS 0.1 μg/ml 6 h, phenylephrine approx. ED90) it was 0.26 µM. The substance further had a half-life in data set [1] (intravenous 10 mg/kg, terminal phase) of 2 to 4 h. The oral bioavailability in data set [1] (oral 50 mg/kg vs intravenous 10 mg/kg, AUC comparison) was over 90%. The “selectivity for iNOS versus nNOS” value on nNOS (rat tissue assays) is over 300 fold. In addition, on iNOS, the “selectivity iNOS vs eNOS” value is over 75.

In turn, “S-[(R/S)-2-(1-Iminoethylamino, 2-Cyclopropyl)ethyl]-L-cysteine Dihydrochloride [Example 7]” registered a concentration for half-maximal inhibition (IC50) on human iNOS of 6.2 µM.

For “S-[(S)-2-(1-Iminoethylamino)propyl]-D-cysteine Dihydrochloride [Example 3]”, the IC50 on human iNOS was 6.6 µM. The IC50 values of the last two substances are within 1.5-fold of each other.

“S-[(S)-2-(1-Iminoethylamino)propyl]-L-cysteine Dihydrochloride [Example 2]” returned a half-maximal inhibitory concentration (IC50) on human iNOS of 39 µM.
